We go through 13 compounds from patent US10562898B2, “Substituted benzenesulfonamides as inhibitors of alpha-4 beta-7 integrin activity” (EA PHARMA CO., LTD., priority 2016, dated 2020).

Broadly, the IC50 is the concentration at which inhibition is half-maximal.

The test has as its target T1, T cell α4β7 integrin (Homo sapiens, UniProt P13612+P26010).
T1 construct: Blood samples were obtained from healthy volunteers' blood donation; endogenous in cells; host or cells: CD4-positive T cells in whole blood of healthy human volunteers
T1 sequence (P13612 34-1032): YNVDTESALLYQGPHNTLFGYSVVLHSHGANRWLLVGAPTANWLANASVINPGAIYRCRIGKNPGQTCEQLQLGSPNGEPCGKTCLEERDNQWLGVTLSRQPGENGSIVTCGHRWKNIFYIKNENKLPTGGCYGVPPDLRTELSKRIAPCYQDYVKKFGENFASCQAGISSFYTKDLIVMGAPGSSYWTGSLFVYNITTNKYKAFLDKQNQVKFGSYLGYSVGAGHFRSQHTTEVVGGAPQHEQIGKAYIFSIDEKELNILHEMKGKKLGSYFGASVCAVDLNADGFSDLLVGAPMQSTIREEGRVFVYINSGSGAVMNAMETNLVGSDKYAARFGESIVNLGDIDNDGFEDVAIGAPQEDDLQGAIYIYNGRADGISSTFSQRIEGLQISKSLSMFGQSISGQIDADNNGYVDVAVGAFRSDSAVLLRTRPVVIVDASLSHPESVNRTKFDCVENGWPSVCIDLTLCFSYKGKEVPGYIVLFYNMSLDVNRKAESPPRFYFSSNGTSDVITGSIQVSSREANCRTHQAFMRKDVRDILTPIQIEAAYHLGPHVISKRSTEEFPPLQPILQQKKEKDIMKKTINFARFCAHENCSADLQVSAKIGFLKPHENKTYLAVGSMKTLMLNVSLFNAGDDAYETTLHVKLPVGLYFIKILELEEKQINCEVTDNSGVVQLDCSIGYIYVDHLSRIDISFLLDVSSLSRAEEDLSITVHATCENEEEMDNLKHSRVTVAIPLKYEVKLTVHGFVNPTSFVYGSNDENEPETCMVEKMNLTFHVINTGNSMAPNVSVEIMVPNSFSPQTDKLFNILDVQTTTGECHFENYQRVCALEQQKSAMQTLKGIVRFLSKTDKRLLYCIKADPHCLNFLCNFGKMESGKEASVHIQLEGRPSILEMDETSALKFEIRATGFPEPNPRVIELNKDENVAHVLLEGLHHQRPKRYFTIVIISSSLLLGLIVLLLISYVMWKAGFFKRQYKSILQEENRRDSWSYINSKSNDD
T1 sequence (P26010 20-798): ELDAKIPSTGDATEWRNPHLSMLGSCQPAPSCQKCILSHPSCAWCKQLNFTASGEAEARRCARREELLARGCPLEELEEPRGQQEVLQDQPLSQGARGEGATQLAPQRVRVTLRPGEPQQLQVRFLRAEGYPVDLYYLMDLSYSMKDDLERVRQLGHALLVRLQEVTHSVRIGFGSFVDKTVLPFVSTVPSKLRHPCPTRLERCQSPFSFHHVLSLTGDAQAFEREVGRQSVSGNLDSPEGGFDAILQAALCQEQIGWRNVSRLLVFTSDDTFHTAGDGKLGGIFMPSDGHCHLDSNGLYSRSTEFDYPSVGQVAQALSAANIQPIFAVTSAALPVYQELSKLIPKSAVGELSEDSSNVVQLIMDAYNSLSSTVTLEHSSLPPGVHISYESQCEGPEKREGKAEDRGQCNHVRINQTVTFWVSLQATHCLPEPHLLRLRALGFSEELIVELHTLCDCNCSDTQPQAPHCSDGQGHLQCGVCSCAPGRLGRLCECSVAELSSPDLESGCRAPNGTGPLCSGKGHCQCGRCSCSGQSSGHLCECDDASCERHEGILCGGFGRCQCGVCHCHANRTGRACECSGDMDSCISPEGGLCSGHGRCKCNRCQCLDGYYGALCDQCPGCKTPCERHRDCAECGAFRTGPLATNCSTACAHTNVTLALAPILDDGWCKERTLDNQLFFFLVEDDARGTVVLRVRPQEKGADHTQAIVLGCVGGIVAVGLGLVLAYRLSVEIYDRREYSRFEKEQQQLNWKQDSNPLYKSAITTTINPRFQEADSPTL
As to the kind of experiment: Mouse MAdCAM-1/α4β7 integrin binding inhibitory activity evaluation test in whole human blood. The test is classed as cell-based. Conditions: recombinant mouse MAdCAM-1/Fc, CD4 positive cells, flow cytometry. The procedure: (4) Mouse MAdCAM-1/α4β7 Integrin Binding Inhibitory Activity Evaluation Test in Whole Human Blood
Each test substance was measured in terms of the binding inhibitory activity of T cell α4β7 integrin and MAdCAM-1 in human whole blood. Blood samples were obtained from healthy volunteers' blood donation.
A 4 mM MnCl2 solution and each of dilutions of various test substances were added to human whole blood, followed by incubation for 10 minutes. Recombinant mouse MAdCAM-1/Fc (R&D Systems, Inc.) at 10 μg/mL was added to the resultant, and each test sample taken in a total amount of 50 μL was incubated for 30 minutes. Then, 950 μL of Lyse/Fix (BD Biosciences) was added to allow hemolysis and fixation to proceed at 37° C. for 10 minutes. After centrifugation for 5 minutes, the supernatant was removed and 600 μL of a RPMI-1640 medium supplemented with 10% inactivated fetal bovine serum (hereinafter referred to as the medium) was added, followed by centrifugation for 5 minutes, removal of the supernatant, and then washing. After the test sample was washed again with the medium, Rat Anti-Mouse MAdCAM-1 antibody (Southern Biotech) at 0.625 μg/mL was added, followed by incubation for 30 minutes or more. After the test sample was washed with the medium, 50 μg/mL Goat Anti-Rat IgG (H+L) Antibody, FITC (Life Technologies) was added, followed by incubation for 30 minutes or more. After the test sample was washed with the medium, 10 μg/mL PE Rat Anti-Mouse CD4 (BD Pharmigen) was added, followed by incubation for 30 minutes or more. After the test sample was washed with the medium, a ratio of MAdCAM-1 positive cells to CD4 positive cells was measured by using flow cytometry.
From independent test results using different blood samples of two to three persons, a MAdCAM-1 binding inhibiting rate of each test substance at each of various concentrations was obtained under the setting in which, among wells containing no test substances, a well containing no ligand was scored at 100% inhibition and a well containing ligand was scored at 0% inhibition, and then a concentration IC50 which brought about 50% binding inhibition was calculated.
Background: Flow cytometry measures light scatter and fluorescence of single cells or particles in a stream.
As for `Cn1c(=O)n(-c2ccc(C[C@H](NC(=O)c3cc(F)c(NS(=O)(=O)c4ccc(NC(=O)C(C)(C)C)cc4)cc3F)C(=O)O)cc2)c(=O)c2ccncc21` [Compound A1, (2S)-2-[[4-[[4-(2,2-dimethylpropanoylamino)phenyl]sulfonylamino]-2,5-difluoro-benzoyl]amino]-3-[4-(1-methyl-2,4-dioxo-pyrido[3,4-d]pyrimidin-3-yl)phenyl]propanoic acid], the IC50 came out at 3.9 nM.
Regarding `Cc1cn(C)c(=O)n(-c2ccc(C[C@H](NC(=O)c3cc(F)c(NS(=O)(=O)c4ccc(NC(=O)C(C)(C)C)cc4)cc3F)C(=O)O)cc2)c1=O` [Compound A37], the IC50 was 3.3 nM.
As for `Cn1c2c(c(=O)n(-c3ccc(C[C@H](NC(=O)c4cc(F)c(NS(=O)(=O)c5ccc(NC(=O)C(C)(C)C)cc5)cc4F)C(=O)O)cn3)c1=O)COCC2` [Compound A44], the half-inhibitory concentration (IC50) came to 1 nM.
For `Cc1c(C)n(C)c(=O)n(-c2ccc(C[C@H](NC(=O)c3cc(F)c(NS(=O)(=O)c4ccc(NC(=O)C(C)(C)C)cn4)cc3F)C(=O)O)cn2)c1=O` [Compound A32], the IC50 worked out at 1.9 nM.
For the compound `Cn1c2c(c(=O)n(-c3ccc(C[C@H](NC(=O)c4cc(F)c(NS(=O)(=O)c5ccc(NC(=O)C(C)(C)C)cc5)cc4F)C(=O)O)cn3)c1=O)CCOC2` [Compound A40], the IC50 came out at 2.3 nM.
With `Cc1c(C)n(C)c(=O)n(-c2ccc(C[C@H](NC(=O)c3cc(F)c(NS(=O)(=O)c4ccc(NC(=O)C(C)(C)C)cc4)cc3F)C(=O)O)cn2)c1=O` [Compound A28], the IC50 stood at 1.2 nM.
For the compound `Cc1cc(=O)n(-c2ccc(C[C@H](NC(=O)c3cc(F)c(NS(=O)(=O)c4ccc(NC(=O)C(C)(C)C)cc4)cc3F)C(=O)O)cc2)c(=O)n1C` [Compound A46], the IC50 is 1.6 nM.
As to `Cn1ccc(=O)n(-c2ccc(C[C@H](NC(=O)c3cc(F)c(NS(=O)(=O)c4ccc(NC(=O)C(C)(C)C)cc4)cc3F)C(=O)O)cn2)c1=O` [Compound A53], the IC50 is 1.8 nM.
With `Cc1c(C)n(C)c(=O)n(-c2ccc(C[C@H](NC(=O)c3cc(F)c(NS(=O)(=O)c4ccc(NC(=O)C(C)(C)C)cc4)cc3F)C(=O)O)cc2)c1=O` [Compound A8] the figure was 1.3 nM; with `Cn1ccc(=O)n(-c2ccc(C[C@H](NC(=O)c3cc(F)c(NS(=O)(=O)c4ccc(NC(=O)C(C)(C)C)cc4)cc3F)C(=O)O)cc2)c1=O` [Compound A42], 2.2 nM; with `Cc1cn(C)c(=O)n(-c2ccc(C[C@H](NC(=O)c3cc(F)c(NS(=O)(=O)c4ccc(NC(=O)C(C)(C)C)cc4)cc3F)C(=O)O)cn2)c1=O` [Compound A54], 1.3 nM.
For the compound `Cc1cc(=O)n(-c2ccc(C[C@H](NC(=O)c3cc(F)c(NS(=O)(=O)c4ccc(NC(=O)C(C)(C)C)cc4)cc3F)C(=O)O)cn2)c(=O)n1C` [Compound A45], the IC50 is 1.3 nM.
Under `Cn1c(=O)n(-c2ccc(C[C@H](NC(=O)c3cc(F)c(NS(=O)(=O)c4ccc(NC(=O)C(C)(C)C)cc4)cc3F)C(=O)O)cn2)c(=O)c2ccncc21` [Compound A26] stands 2.4 nM.
